Assay results published in ChEMBL document CHEMBL1201862, “PubChem BioAssay data set” (2004).
Where a name gives a salt, the structure may show the parent alone.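 Assay format: 96-well plates, 48-hour exposure. GI50 = concentration required for 50% inhibition of growth.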 Active and inactive are the calls of the source. Cut-off read from the data, not from the text of the source: active = GI50 up to about 1.1 µM and inactive = higher. Residues, ends and D or L forms follow the SMILES beside them. *: point of attachment. Boc = CC(C)(C)OC(=O)*

Experiments:
Test in all cases: NCI anticancer screen, dose series, 48 h
[1] = test system: HCT-15
[2] = test system: K562
[3] = test system: RPMI-8226
[4] = test system: UACC-257
[5] = test system: EKVX
[6] = test system: SK-MEL-2
[7] = test system: SK-OV-3
[8] = test system: NCI-H460
[9] = test system: MCF7
[10] = test system: Malme-3M
[11] = test system: NCI/ADR-RES
[12] = test system: A549
[13] = test system: MDA-MB-435
[14] = test system: COLO 205
[15] = test system: SN12C
[16] = test system: HT-29
[17] = test system: NCI-H522

SMILES | GI50 [1] [µM] | GI50 [2] | GI50 [3] | GI50 [4] | GI50 [5] | GI50 [6] | GI50 [7] | GI50 [8] | GI50 [9] | GI50 [10] | GI50 [11] | GI50 [12] | GI50 [13] | GI50 [14] | GI50 [15] | GI50 [16] | GI50 [17]
NC(C(F)(F)F)(C(F)(F)F)P(=O)(c1ccccc1)c1ccccc1 | > 100 | > 100 µM (inactive) | > 100 µM (inactive) | > 100 µM (inactive) | > 100 µM (inactive) | > 100 µM (inactive) | > 100 µM (inactive) | > 100 µM (inactive) | > 100 µM (inactive) | > 100 µM (inactive) | > 100 µM (inactive) | > 100 µM (inactive) | > 100 µM (inactive) | > 100 µM (inactive) | > 100 µM (inactive) | > 100 µM (inactive) | –
O=C(CSc1nc2ccc(I)cc2c(=O)n1Cc1ccccc1)NNC(=O)c1ccccc1 | 16.5 | 2.2 µM (inactive) | 3.52 µM (inactive) | 18 µM (inactive) | 4.06 µM (inactive) | 6.08 µM (inactive) | 17.2 µM (inactive) | 17.3 µM (inactive) | 9.82 µM (inactive) | – | 13.6 µM (inactive) | 11.9 µM (inactive) | 35 µM (inactive) | 18.9 µM (inactive) | 17.1 µM (inactive) | 19.8 µM (inactive) | 6.4 µM (inactive)
O=c1[nH]nc(Cc2ccc(Cl)cc2)n1Nc1ccccc1 | > 100 | > 100 µM (inactive) | – | > 100 µM (inactive) | > 100 µM (inactive) | > 100 µM (inactive) | – | > 100 µM (inactive) | > 100 µM (inactive) | > 100 µM (inactive) | > 100 µM (inactive) | > 100 µM (inactive) | > 100 µM (inactive) | > 100 µM (inactive) | > 100 µM (inactive) | > 100 µM (inactive) | –
COc1cc2c(cc1OC)C(=O)/C(=C/c1ccc(Cl)cc1)CC2 | > 10 | > 10 µM (inactive) | > 10 µM (inactive) | > 10 µM (inactive) | > 10 µM (inactive) | > 10 µM (inactive) | > 10 µM (inactive) | > 10 µM (inactive) | > 10 µM (inactive) | > 10 µM (inactive) | > 10 µM (inactive) | > 10 µM (inactive) | > 10 µM (inactive) | > 10 µM (inactive) | > 10 µM (inactive) | > 10 µM (inactive) | –
COC(=O)C1=C(C(=O)OC)SC(=C2c3ccsc3-c3sccc32)S1 | 53.7 | 36.2 µM (inactive) | 76.9 µM (inactive) | 64.4 µM (inactive) | 27.3 µM (inactive) | – | 12.3 µM (inactive) | > 100 µM (inactive) | 27.4 µM (inactive) | 43.2 µM (inactive) | 62.8 µM (inactive) | 37.2 µM (inactive) | > 100 µM (inactive) | 47.5 µM (inactive) | 65.8 µM (inactive) | 22.8 µM (inactive) | –
Cc1c2cccc-2c(N(C)C)cc2c1[nH]c1ccccc12 | 3.12 | – | 2.07 µM (inactive) | 13 µM (inactive) | 1.96 µM (inactive) | – | 2.67 µM (inactive) | 9.16 µM (inactive) | 5.31 µM (inactive) | 3.3 µM (inactive) | 3.22 µM (inactive) | 3.85 µM (inactive) | 8.36 µM (inactive) | 1.65 µM (inactive) | 6.67 µM (inactive) | 4.81 µM (inactive) | –
CN(C)Cc1cc(/C=C/C(=O)c2ccc(Br)cc2)cc(CN(C)C)c1O | – | 25.1 µM (inactive) | 3.54 µM (inactive) | 17.2 µM (inactive) | 20.2 µM (inactive) | 26.2 µM (inactive) | 29.8 µM (inactive) | 19.3 µM (inactive) | 22.6 µM (inactive) | 16.7 µM (inactive) | 36.6 µM (inactive) | 29.2 µM (inactive) | 16.9 µM (inactive) | 14.6 µM (inactive) | 15.6 µM (inactive) | 18.8 µM (inactive) | –
COC(=O)C(Cc1c[nH]c2ccccc12)NC(=O)C(Cc1c[nH]c2ccccc12)NC(=O)C(Cc1c[nH]c2ccccc12)NC(=O)C(Cc1c[nH]c2ccccc12)NC(=O)C(Cc1c[nH]c2ccccc12)NC(=O)C(Cc1c[nH]c2ccccc12)NC(=O)OC(C)(C)C (stereo not given) (Boc-WWWWWW-OMe; configuration not given here) | > 100 | > 100 µM (inactive) | 57 µM (inactive) | 30.3 µM (inactive) | – | 61.7 µM (inactive) | – | > 100 µM (inactive) | 5.25 µM (inactive) | 69.5 µM (inactive) | – | 31.7 µM (inactive) | > 100 µM (inactive) | – | 49.9 µM (inactive) | > 100 µM (inactive) | 28.1 µM (inactive)
CN[C@@H](C)[C@@H](O)c1ccccc1 [PSEUDOEPHEDRINE HYDROCHLORIDE] | > 100 | > 100 µM (inactive) | > 100 µM (inactive) | > 100 µM (inactive) | > 100 µM (inactive) | > 100 µM (inactive) | – | > 100 µM (inactive) | > 100 µM (inactive) | > 100 µM (inactive) | > 100 µM (inactive) | > 100 µM (inactive) | > 100 µM (inactive) | > 100 µM (inactive) | > 100 µM (inactive) | > 100 µM (inactive) | > 10 µM (inactive)
